# Laboratory results taken from patent US4929751A, “Vinyl tricarbonyl compounds and methods of making the same” (Yale University, priority 1987, dated 1990).
# Read-outs that look alike come from different tables or passages of the source.
# What was measured:
# Type in all cases: cell-based
# breast cell lines = experiment: disease category selectivity
# Description: (§1) As described below, the data in Table 1 serve to display the testing results on disease category selectivity in a bar graph format. Bars projecting to the right of the reference (vertical line of asterisks) indicate greater than average sensitivity to the test compound. Each bar represents one power of ten in sensitivity, so that the results for OVCAR-5 (ovarian tumor) indicate a remarkable […] increase in sensitivity over the reference test.
# (§2) Table 1 reports and illustrates the results obtained by testing t-butyl 2,3-dioxo-pent-4-enoate hydrate. The concentration of this compound found to inhibit the growth of each cell line listed under "CELL" by 50% is reported under "LOG(IC50)" as the logarithm of the concentration. The units of concentration are either molarity in which case an "M" is shown in parentheses next to the LOG(IC50) label, or micrograms per ml, in which case a "W" (for weight) is shown in parenthesis. The cell line names are grouped by disease type and the disease type names are listed on the far left.
# (§3) The graph on the right depicts the data on the left in a format called a "MEAN GRAPH" which is designed to aid in the identification of differential growth inhibition. […] The interest in using this concept of differential growth inhibition as a criterion of activity in the screening system is to encourage the discovery of new types of anticancer agents having greater tissue specificity than cancer chemotherapeutic agents in use today.
# (§4) The idea for the Mean Graph resulted from trying to detect differential growth inhibition in a bar graph format Experimentation led to a graph centered at the arithmetic mean (ML) of the logarithm of the IC50'a of all the cell line responses measured for a compound. The Mean Graph is constructed around a vertical reference (indicating ML) by projecting bars to the right or to the left. […] The lengths of the bars are proportional to the differences between the logarithms of the specific cell line IC50's and the overall mean value ML. These lengths represent differences in logarithms which are equivalent to the ratios of the specific IC50's to the geometric mean of all the IC50's. Therefore, a useful property of the Mean Graph format is the ability to compare patterns derived from IC50's measured in different units, e.g, micrograms per ml and molarity. The units cancel in the division process.
# (§5) Differential growth inhibition is depicted as a bar projecting some distance to the right of ML. A bar projecting three log units to the right of ML, for example, would reflect a cellular sensitivity 1000 times greater than ML. While any degree of sensitivity greater than ML might theoretically be considered differential growth inhibition, in practice one must consider the experimental error in the measurement and at what point the degree of differential growth inhibition becomes meaningful in biological terms. The three values listed a the bottom of the graph provide the value of ML as "AVE LOG(IC50)", the greatest difference from ML as "DELTA" and the difference between the least sensitive cell line and the most sensitive cell line as the "RANGE".
# [1] = test system: RESISTL (resistant lung cancer) cell lines; experiment: disease category selectivity
# Description: as §1, §2, §3, §4, §5
# [2] = test system: resistant breast cancer cell lines; experiment: disease category selectivity; conditions: RESISTB
# Description: as §1, §2, §3, §4, §5
# [3] = test system: central nervous system cell lines; experiment: disease category selectivity; conditions: CNS
# Description: as §1, §2, §3, §4, §5
# [4] = test system: small cell lung cancer cell lines; experiment: disease category selectivity; conditions: SCLC
# Description: as §1, §2, §3, §4, §5
# ovarian cell lines = experiment: disease category selectivity
# Description: as §1, §2, §3, §4, §5
# [5] = test system: nonsmall cell lung cancer cell lines; experiment: disease category selectivity; conditions: NSCLC
# Description: as §1, §2, §3, §4, §5
# melanoma cell lines = experiment: disease category selectivity; conditions: MEL
# Description: as §1, §2, §3, §4, §5
# renal cell lines = experiment: disease category selectivity
# Description: as §1, §2, §3, §4, §5
# leukemia cell lines = experiment: disease category selectivity; conditions: LEUK
# Description: as §1, §2, §3, §4, §5
# PS cell lines = experiment: disease category selectivity
# Description: as §1, §2, §3, §4, §5
# colon cell lines = experiment: disease category selectivity
# Description: as §1, §2, §3, §4, §5
# OVCAR-5 (ovarian) = experiment: growth inhibition of tumor cell line; conditions: for IC50: Homo sapiens, OVCAR-5
# Description: (§6) t-Butyl 2,3-dioxo-pent-4-enoate hydrate (A) was contacted with various cell lines as indicated on Table 1 hereinbelow in the column designated as "CELL" or "TUMOR". […]
# as §1, §2
# tumor cells = experiment: growth inhibition of tumor cells, whole panel (mean graph)
# Description: as §6, §2, §3, §4, §5
# OVCAR-8 (ovarian) = experiment: growth inhibition of tumor cell line; conditions: Homo sapiens
# Description: as §6, §2
# UO-31 (renal) = experiment: growth inhibition of tumor cell line; conditions: Homo sapiens, logarithm of the concentration inhibiting growth by 50%
# Description: as §6, §2
# K562 (leukemia) = experiment: growth inhibition of tumor cell line; conditions: Homo sapiens
# Description: as §6, §2
# MALME-3M (melanoma) = experiment: growth inhibition of tumor cell line; conditions: Homo sapiens
# Description: as §6, §2
# [6] = test system: H524 (small cell lung cancer); experiment: growth inhibition of tumor cell line; conditions: Homo sapiens, NCI-H524
# Description: as §6, §2
# RPMI-7951 (melanoma) = experiment: growth inhibition of tumor cell line; conditions: Homo sapiens
# Description: as §6, §2
# [7] = test system: SNB-44 (central nervous system); experiment: growth inhibition of tumor cell line
# Description: as §6, §2
# [8] = mean LOG(IC50) of category, 1 cell line, read-out: MEAN CAT (converted)
# [9] = mean LOG(IC50) of category, 4 cell lines, read-out: MEAN CAT (converted)
# [10] = mean LOG(IC50) of category, 5 cell lines, read-out: MEAN CAT (converted)
# [11] = logarithm of the concentration inhibiting growth by 50%, read-out: LOG(IC50) (converted)
smiles,measurement,setting,value
"C=CC(=O)C(O)(O)C(=O)OC(C)(C)C [t-butyl 2,3-dioxo-pent-4-enoate hydrate]",DIFF CAT,breast cell lines; difference from mean,0.1
same,IC50,breast cell lines; [8],100 µM
same,DIFF CAT,[1]; difference from mean,0.2
same,IC50,[1]; [8],126 µM
same,DIFF CAT,[2]; difference from mean,0.1
same,IC50,[2]; [8],100 µM
same,DIFF CAT,[3]; difference from mean,0.2
same,IC50,[3]; [9],100 µM
same,DIFF CAT,[4]; difference from mean,0
same,IC50,[4]; [10],79.4 µM
same,DIFF CAT,ovarian cell lines; difference from mean,-0.2
same,IC50,ovarian cell lines; [10],50.1 µM
same,DIFF CAT,[5]; difference from mean,0
same,IC50,"[5]; mean LOG(IC50) of category, 10 cell lines, read-out: MEAN CAT (converted)",79.4 µM
same,DIFF CAT,melanoma cell lines; difference from mean,0
same,IC50,melanoma cell lines; [10],79.4 µM
same,DIFF CAT,renal cell lines; difference from mean,0.1
same,IC50,"renal cell lines; mean LOG(IC50) of category, 3 cell lines, read-out: MEAN CAT (converted)",79.4 µM
same,DIFF CAT,leukemia cell lines; difference from mean,-0.4
same,IC50,"leukemia cell lines; mean LOG(IC50) of category, 2 cell lines, read-out: MEAN CAT (converted)",31.6 µM
same,DIFF CAT,PS cell lines; difference from mean,0.1
same,IC50,PS cell lines; [8],100 µM
same,DIFF CAT,colon cell lines; difference from mean,-0.1
same,IC50,colon cell lines; [9],63.1 µM
same,IC50,OVCAR-5 (ovarian); read-out: IC-50 MEAN,2.01 µM
same,IC50,OVCAR-5 (ovarian); [11],1.26 µM
same,effectiveness against ovarian cell line OVCAR-5,OVCAR-5 (ovarian); in words,particularly effective
same,IC50,"tumor cells; arithmetic mean of the logarithm of the IC50 of all cell lines, read-out: AV TC50 (AVE LOG(IC50), ML) (converted)",74.1 µM
same,RANGE,"tumor cells; difference between least and most sensitive cell line, log units",2.3
same,DELTA,"tumor cells; greatest difference from ML, log units",1.8
same,IC50,"tumor cells; mean over the cell lines, read-out: IC-50 MEAN, NSC MEAN",79.1 µM
same,IC50,"tumor cells; total cell lines used = 42, read-out: MEAN OF ALL LOGIC50'S (converted)",100 µM
same,IC90,OVCAR-8 (ovarian),263 µM
same,IC50,OVCAR-8 (ovarian); [11],126 µM
same,IC50,OVCAR-8 (ovarian); read-out: IC-50 MEAN,114 µM
same,IC50,UO-31 (renal),> 251 µM
same,IC90,K562 (leukemia),225 µM
same,IC50,K562 (leukemia); [11],100 µM
same,IC50,K562 (leukemia); read-out: IC-50 MEAN,90.3 µM
same,IC90,MALME-3M (melanoma),180 µM
same,IC50,"MALME-3M (melanoma); MALME-3, logarithm of the concentration inhibiting growth by 50%, read-out: LOG(IC50) (converted)",100 µM
same,IC50,MALME-3M (melanoma); read-out: IC-50 MEAN,78.8 µM
same,IC90,[6],189 µM
same,IC50,"[6]; H524, logarithm of the concentration inhibiting growth by 50%, read-out: LOG(IC50) (converted)",39.8 µM
same,IC50,[6]; read-out: IC-50 MEAN,40.8 µM
same,IC90,RPMI-7951 (melanoma),178 µM
same,IC50,"RPMI-7951 (melanoma); RPMI-79, logarithm of the concentration inhibiting growth by 50%, read-out: LOG(IC50) (converted)",79.4 µM
same,IC50,RPMI-7951 (melanoma); read-out: IC-50 MEAN,76.7 µM
same,IC90,[7]; SNB44,235 µM
same,IC50,"[7]; SNB44, logarithm of the concentration inhibiting growth by 50%, read-out: LOG(IC50) (converted)",100 µM
same,IC50,"[7]; SNB44, read-out: IC-50 MEAN",94 µM
